# From patent US20080070852A1, “3-Beta-D-Ribofuranosylthiazolo[ 4,5-D] Pyridimine Nucleosides and Uses Thereof” (priority 2004, published 2008)
# Read-outs that look alike come from different tables or passages of the source.
# Legend:
# in vivo = settings: beagle, dog, iv, 12.5 mg/kg
# Method: (§1) Formal toxicology studies of intravenously administered isatoribine and orally administered isatoribine and val-isatoribine were conducted in beagle dogs.
# (§2) In each case the compound was administered as a solution, by gavage or by intravenous infusion. Multiple parameters were assessed, as is customary in a toxicology study. In the studies providing higher potential exposure to isatoribine, the plasma concentration of isatoribine was assessed by a LC/MS method.
# [1] = Recovery of 1 in urine after intravenous administration; format: in vivo; settings: read-out: recovery of administered dose in the urine as intact 1
# Method: Reference values for compound I were obtained by similar procedures after either oral or intravenous dosing. […] For this reason, in some experiments the amount of 1 in urine collected over a period of 24 hours after dosing was used to assess compounds.
# beagle dogs [2] = assay: Toxicology studies in beagle dogs (GI tolerance); settings: dogs
# Method: as §1, §2
# [3] = Toxicology studies in beagle dogs (GI tolerance); settings: beagle, dog, iv; for AUC(0-t): plasma
# Method: as §1, §2
# [4] = test system: interferon alpha (Mu-IFN-α); assay: Murine interferon alpha in plasma of dosed mice; format: in vivo
# From the text: The normal mouse provides a useful system for the assessment of the degree to which the inventions described herein provide material improvement in the oral delivery of 1 (isatoribine). Not only can one measure the plasma concentrations of isatoribine arising from oral administration of the said prodrug(s) but also the extensive immunological research conducted in the mouse has provided reagents suitable for measuring the levels of interferon alpha, a cytokine of interest reflecting one of the desired biologic activities of isatoribine.
# Table 1 records the results of an assay for murine interferon alpha in the plasma of mice that were dosed two times with isatoribine, formulated in bicarbonate, at a level of 50 mg/kg by the oral route.
# Table 2 records the results of assays for murine interferon alpha in the plasma of mice that first were dosed with bicarbonate and then four hours later were dosed orally with isatoribine, formulated in bicarbonate, at a level of 50 mg/kg. Interferon was reported in the plasma from four mice, including two that had received the bicarbonate vehicle dose.
# Table 3 records the results of assays for murine interferon alpha in the plasma of mice that were dosed orally with val-isatoribine, dissolved in bicarbonate, at a dose that is equivalent to 50/mg/kg of isatoribine on a molar basis. […] Interferon was detected in all mice assayed at a given time point, indicating the reliability of the effect following val-isatoribine administration.
# In other experiments, plasma levels of isatoribine and interferon alpha were measured in mice that were dosed with isatoribine by the intravenous route, and these levels were compared to the levels of isatoribine and interferon alpha arising after oral administration of val-isatoribine. […] Thus, oral val-isatoribine provides levels of isatoribine and interferon that are approximately 50% of those observed after intravenous administration of isatoribine itself.
# beagle dogs [5] = settings: cited from earlier work
# beagle dogs [6] = settings: dog, in vivo, iv, 12.5 mg/kg
# Method: as §1, §2
# [7] = IV Isatoribine, applied dose 25 mg/kg
# [8] = dogs, Oral Isatoribine, applied dose 2.5 mg/kg
smiles,measurement,setting,value
"Nc1nc2c(sc(=O)n2[C@@H]2O[C@H](CO)[C@@H](O)[C@H]2O)c(=O)[nH]1 [Compound 1, 5-amino-3-β-D-ribofuranosylthiazolo[4,5-d]pyrimidine-2,7-dione, reference compound]",AUC(0-t),in vivo,19500 ng·h/mL
same,dose excreted,[1],> 75%
same,GI lesions,"beagle dogs [2]; intravenous, necropsy or histopathologic evaluation",No lesions were seen in the GI tract
same,Emesis or loose stool,beagle dogs [2]; [7],Neg.
same,GI lesions or irritation,beagle dogs [2]; [7],Neg.
same,GI lesions or irritation,"beagle dogs [2]; IV Isatoribine, applied dose 50 mg/kg",Neg.
same,GI lesions or irritation,"beagle dogs [2]; IV Isatoribine, applied dose 100 mg/kg",Neg.
same,NOAEL,[3]; in vivo,12.5 mg/kg
same,AUC(0-t),[3]; 25 mg/kg,42800 ng·h/mL
same,AUC(0-t),[3]; 50 mg/kg,87800 ng·h/mL
same,AUC(0-t),[3]; 100 mg/kg,209000 ng·h/mL
same,interferon in plasma,"[4]; mice, two oral 50 mg/kg doses, interval four hours",no interferon was measurable
same,mice with interferon detected in plasma,"[4]; oral dosing, studies of Tables 1-3",4 of the 114
same,limiting toxicity,"beagle dogs [5]; dog, in vivo, po",gastrointestinal lesions
same,Emesis or loose stool,beagle dogs [5]; [8],Neg.
same,GI lesions or irritation,beagle dogs [5]; [8],Neg.
same,GI lesions or irritation,"beagle dogs [5]; dogs, Oral Isatoribine, applied dose 5 mg/kg",Neg.
same,"dogs with multiple, scattered red lesions on the intestinal mucosa","beagle dogs [5]; oral, 10 mg/kg, gross histopathologic evaluation",four of eight dogs
same,Emesis or loose stool,beagle dogs [6],Neg.
same,GI lesions or irritation,beagle dogs [6],Neg.
